# Experimental data: US20210292340A1, “CELL NECROSIS INHIBITOR, PREPARATION METHOD THEREFOR AND USE THEREOF” (SHANGHAI INSTITUTE OF ORGANIC CHEMISTRY, CHINESE ACADEMY OF …, priority 2018, published 2021)
# Tested on: Jurkat (FADD−/−) cells
# Assay: Inhibition of TNF-induced programmed Jurkat (FADD−/−) cell necrosis (Cell Titer-Glo)
# Assay type: cell-based, human
# Conditions: Homo sapiens, Jurkat, 20 h, TNF 10 ng/mL, intracellular ATP level, read-out: Cellular IC50 (M) Jurkat (FADD−/−)
# Protocol: Two replicate wells were set for each concentration of each compound.
# Jurkat (FADD^−/−) cells (human-derived peripheral blood leukemia T cell line, with FADD gene knocked out) were cultured in vitro. After growing to logarithmic growth phase, the cells were harvested, and centrifuged at 1000 rpm for 5 min. The supernatant was discarded, and the cells were resuspended in fresh medium and adjusted to a cell density of 5×10^5/mL. The cell suspension was added to the culture plate containing the drug (40 μL per well). In the treatment groups, 10 μL of TNF (tumor necrosis factor, final concentration 10 ng/mL) diluted with the cell culture medium was added to each well, and incubated for 20 h in a cell incubator (37° C., 5% CO2). Subsequently, 50 μL of Cell Titer-Glo solution was added to each well and incubated at room temperature for 10 min. Then, the luminescence was detected on BioTek plate reader to measure the intracellular ATP level. The effect of the test compounds in inhibiting TNF-induced cell necrosis was calculated from the full-activity well and background well (with the untreated DMSO control well as 100% cell viability), and the half inhibitory concentration (IC50) of the compound was calculated by Graphpad Prism statistical software.
row,Structure (SMILES),IC50 [M]
1,CN1C(=O)[C@@H](NC(=O)c2nnc(Cc3ccccc3)[nH]2)COc2cc3nccnc3cc21 [RIP1-135],4.25e-09
2,CN1C(=O)[C@@H](NC(=O)c2cc(Cc3ccccc3)on2)COc2ccc3ncccc3c21 [RIP1-101],5.5e-09
3,CN1C(=O)[C@@H](NC(=O)c2cn(Cc3ccccc3)nn2)COc2cc3[nH]nnc3cc21 [RIP1-138],1.68e-08
4,CN1C(=O)[C@@H](NC(=O)c2ncn(Cc3ccccc3)n2)COc2cc3occc3cc21 [RIP1-119],5.81e-10
5,CN1C(=O)[C@@H](NC(=O)c2cc(Cc3ccccc3)on2)COc2cc3occc3cc21 [RIP1-126],2.61e-09
6,CN1C(=O)[C@@H](NC(=O)c2cn(Cc3ccccc3)cn2)CSc2cc3c(ccn3C)cc21 [RIP1-055],2.29e-09
7,COc1ncnc2cc3c(cc12)N(C)C(=O)[C@@H](NC(=O)c1n[nH]c(Cc2cc(F)cc(F)c2)n1)CO3 [RIP1-176],6.9e-09
8,CN1C(=O)[C@@H](NC(=O)c2cc(Cc3ccccc3)on2)CSc2cc3occc3cc21 [RIP1-038],1.29e-10
9,CN1C(=O)[C@@H](NC(=O)c2n[nH]c(Cc3ccccc3)n2)CSc2cc3[nH]ncc3cc21 [RIP1-013],5.3e-10
10,CN1C(=O)[C@@H](NC(=O)c2cc(Oc3ccccc3F)ccn2)COc2ccc3ncccc3c21 [RIP1-203],2.33e-09
11,CN1C(=O)[C@@H](NC(=O)c2cc(Cc3ccccc3)on2)CSc2cc3[nH]ccc3cc21 [RIP1-003],6.91e-10
12,Cc1ccc(Cc2cc(C(=O)N[C@H]3COc4cc5[nH]c(C)nc5cc4N(C)C3=O)n(C)n2)cc1 [RIP1-073],> 2e-06
13,CN1C(=O)[C@@H](NC(=O)c2cncn2Cc2ccccc2)CSc2cc3[nH]ncc3cc21 [RIP1-017],> 2e-06
14,CN1C(=O)[C@@H](NC(=O)c2ncn(Cc3ccccc3)n2)CSc2ccc3ncccc3c21 [RIP1-093],1.15e-09
15,CN1C(=O)[C@@H](NC(=O)c2cnn(Cc3ccccc3)c2)CSc2cc3c(ccn3Cc3ccccc3)cc21 [RIP1-083],> 2e-06
16,CN1C(=O)[C@@H](NC(=O)c2n[nH]c(Cc3ccccc3F)n2)COc2ccc3cnccc3c21 [RIP1-163],1.3e-09
17,CN1C(=O)[C@@H](NC(=O)c2cn(Cc3ccccc3)cn2)CSc2cc3[nH]ncc3cc21 [RIP1-016],2.3e-10
18,CN1C(=O)[C@@H](NC(=O)c2cc(Cc3ccccc3)on2)COc2cc3[nH]ccc3cc21 [RIP1-116],5.16e-09
19,CN1C(=O)[C@@H](NC(=O)c2ccnc(Nc3ccccc3)n2)COc2ccc3ncccc3c21 [RIP1-202],> 2e-05
20,CN1C(=O)[C@@H](NC(=O)c2cc(Oc3cccnc3)ccn2)COc2cc3nccnc3cc21 [RIP1-214],2.41e-08
21,CN1C(=O)[C@@H](NC(=O)c2ncn(Cc3ccccc3)n2)COc2cc3[nH]ncc3cc21 [RIP1-025],2.86e-10
22,CN1C(=O)[C@@H](NC(=O)c2cn(Cc3ccccc3)nn2)COc2cc3[nH]ccc3cc21 [RIP1-115],3.48e-09
23,CN1C(=O)[C@H](NC(=O)c2nnc(Cc3ccccc3)o2)COc2cc3c(ccn3C)cc21 [RIP1-081],> 2e-06
24,CN1C(=O)[C@@H](NC(=O)c2cc(Cc3ccccc3)on2)CSc2ccc3ncccc3c21 [RIP1-096],1.38e-09

row,Structure (SMILES),IC50 [M]
1,CN1C(=O)[C@@H](NC(=O)c2n[nH]c(Cc3c(F)cc(F)cc3F)n2)COc2ccc3cnccc3c21 [RIP1-162],5.4e-08
2,Cc1nc2cc3c(cc2[nH]1)OC[C@H](NC(=O)c1cnn(Cc2ccccc2)c1)C(=O)N3C [RIP1-062],> 2e-06
3,CN1C(=O)[C@@H](NC(=O)c2cnnn2Cc2ccccc2)CSc2cc3[nH]ccc3cc21 [RIP1-051],> 2e-06
4,CN1C(=O)[C@@H](NC(=O)c2cn(Cc3ccccc3)cn2)CSc2ccc3ncccc3c21 [RIP1-094],2e-09
5,Cc1ccc(Cc2cc(C(=O)N[C@H]3CSc4cc5[nH]ccc5cc4N(C)C3=O)nn2C)cc1 [RIP1-045],> 2e-06
6,CN1C(=O)[C@@H](NC(=O)c2nnc(Cc3ccccc3)[nH]2)CSc2ccc3cnccc3c21 [RIP1-102],9e-10
7,CN1C(=O)[C@@H](NC(=O)c2cnc(Cc3ccccc3)[nH]2)CSc2cc3c(ccn3C)cc21 [RIP1-050],4.92e-07
8,Cc1nc2cc3c(cc2[nH]1)OC[C@H](NC(=O)c1cnnn1Cc1ccccc1)C(=O)N3C [RIP1-064],> 2e-06
9,CN1C(=O)[C@@H](NC(=O)c2cncc(Oc3ccccc3)c2)COc2ccc3ncccc3c21 [RIP1-193],2.95e-07
10,CN1C(=O)[C@@H](NC(=O)c2cnn(Cc3ccccc3)c2)CSc2cc3c(ccn3C)cc21 [RIP1-010],9.6e-08
11,CN1C(=O)[C@@H](NC(=O)c2n[nH]c(Cc3ccc(F)cc3)n2)COc2ccc3ncccc3c21 [RIP1-171],1.4e-08
12,CN1C(=O)[C@@H](NC(=O)c2cn(Cc3ccccc3)nn2)CSc2cc3c(ccn3C)cc21 [RIP1-048],5.1e-09
13,CN1C(=O)[C@@H](NC(=O)c2cnnn2Cc2ccccc2)CSc2cc3c(ccn3C)cc21 [RIP1-052],> 2e-06
14,COc1ncnc2cc3c(cc12)N(C)C(=O)[C@@H](NC(=O)c1cc(Oc2ccccc2)ccn1)CO3 [RIP1-175],1.46e-09
15,CN1C(=O)[C@@H](NC(=O)c2n[nH]c(Cc3cccc(F)c3)n2)COc2ccc3ncccc3c21 [RIP1-172],5e-09
16,CN1C(=O)[C@H](NC(=O)c2cc(Cc3ccccc3)on2)COc2cc3c(ccn3C)cc21 [RIP1-080],> 2e-06
17,CN1C(=O)[C@@H](NC(=O)c2ccnc(Oc3ccccc3)c2)COc2ccc3ncccc3c21 [RIP1-195],5.66e-06
18,CN1C(=O)[C@@H](NC(=O)c2cn(Cc3ccccc3)cn2)CSc2cc3c(ccn3Cc3ccccc3)cc21 [RIP1-088],> 2e-06
19,CN1C(=O)[C@@H](NC(=O)c2n[nH]c(Cc3c(F)cccc3F)n2)COc2ccc3ncccc3c21 [RIP1-168],1.1e-08
20,CN1C(=O)[C@@H](NC(=O)c2cc(Oc3cccnc3)ccn2)COc2ccc3ncccc3c21 [RIP1-210],7.8e-09
21,CN1C(=O)[C@@H](NC(=O)c2cn(Cc3ccccc3)nn2)COc2cc3[nH]ncc3cc21 [RIP1-024],2.03e-09
22,CN1C(=O)[C@@H](NC(=O)c2nnc(Cc3ccccc3)[nH]2)CSc2cc3occc3cc21 [RIP1-039],4.5e-10
23,CN1C(=O)[C@@H](NC(=O)c2ccnc(Oc3ccccc3)n2)COc2ccc3ncccc3c21 [RIP1-199],4.76e-05

# Same assay, conditions: Homo sapiens, Jurkat, 20 h, read-out: Cellular IC50 (M) Jurkat (FADD−/−)
row,Structure (SMILES),IC50 [M]
1,CN1C(=O)[C@@H](NC(=O)c2nnc(Cc3ccccc3)[nH]2)COc2ccc3cnccc3c21 [RIP1-107],1.07e-09

# Target: T1, human RIP1 (Homo sapiens, UniProt Q13546)
# T1 construct: made in house; host or cells: Sf-9 insect cells
# T1 sequence (Q13546 1-671): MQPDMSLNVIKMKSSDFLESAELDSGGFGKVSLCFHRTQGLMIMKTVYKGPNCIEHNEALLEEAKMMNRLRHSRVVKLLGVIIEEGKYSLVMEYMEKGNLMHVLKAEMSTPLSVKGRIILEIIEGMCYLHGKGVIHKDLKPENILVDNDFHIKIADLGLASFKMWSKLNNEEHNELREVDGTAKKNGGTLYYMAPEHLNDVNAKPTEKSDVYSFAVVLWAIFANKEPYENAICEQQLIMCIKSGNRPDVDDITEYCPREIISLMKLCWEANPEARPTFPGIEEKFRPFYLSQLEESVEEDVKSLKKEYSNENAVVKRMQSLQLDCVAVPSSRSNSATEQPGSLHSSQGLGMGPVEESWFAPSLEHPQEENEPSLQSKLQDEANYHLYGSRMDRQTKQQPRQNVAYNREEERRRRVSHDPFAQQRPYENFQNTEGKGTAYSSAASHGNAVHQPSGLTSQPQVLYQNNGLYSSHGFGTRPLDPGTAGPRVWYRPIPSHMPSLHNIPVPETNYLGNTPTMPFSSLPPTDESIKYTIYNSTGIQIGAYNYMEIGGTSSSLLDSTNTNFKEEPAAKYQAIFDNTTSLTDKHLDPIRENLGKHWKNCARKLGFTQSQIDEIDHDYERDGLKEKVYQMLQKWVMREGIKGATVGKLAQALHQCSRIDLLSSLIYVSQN
# Assay: Inhibition of ADP-Glo RIP1 kinase activity
# Assay type: biochemical
# Conditions: not given
# Protocol: The human RIP1 gene was transduced into Sf-9 insect cells, and the RIP1 protein was purified by Ni+ affinity chromatography and then by S-200 molecular sieve to remove the protein multimers. The obtained RIP1 protein was stored at −70° C., and the activity of the RIP1 protein in catalyzing autophosphorylation was detected by the ADP-Glo™ Kinase Activity Assay Kit (Promega) and the inhibitory activity of the drug against the RIP1 kinase was determined.
# 100 nL of the compound was transferred to a 384-well assay plate. Two replicate wells were set for each concentration of each drug.
# The RIP1 enzyme solution and ATP solution were formulated in an assay buffer (containing 50 mM HEPES pH 7.5, 30 mM MgCl2, 50 mM NaCl, 1 mM DTT, 0.02% CHAPS, and 0.5 mg/ml BSA). Then, 5 μL of the RIP1 enzyme solution (final concentration 50 nM) was added to the assay plate and incubated at room temperature for 1 h. 5 μL of the ATP solution (final concentration 10 μM) was added to the assay plate, and incubate at room temperature for 4 h. Then 5 μL of ADP-Glo reagent was added to the assay plate, and incubated at room temperature for 60 min. 5 μL of a kinase assay solution was added to the assay plate, and incubated at room temperature for 30 min. After readout on Envision, the inhibition rate in each well was calculated from the full-activity well and the background well, and the Ki of the compound was calculated by GraphPad Prism 7 software (using the Morrision equation to fit the curve and calculate the Ki).
row,Structure (SMILES),Ki [nM]
1,CN1C(=O)[C@@H](NC(=O)c2nnc(Cc3ccccc3)[nH]2)COc2cc3nccnc3cc21 [RIP1-135],21.5
2,CN1C(=O)[C@@H](NC(=O)c2cc(Cc3ccccc3)on2)COc2ccc3ncccc3c21 [RIP1-101],17.2
3,CN1C(=O)[C@@H](NC(=O)c2nnc(Cc3ccccc3)[nH]2)COc2ccc3cnccc3c21 [RIP1-107],8.9
4,CN1C(=O)[C@@H](NC(=O)c2cn(Cc3ccccc3)nn2)COc2cc3[nH]nnc3cc21 [RIP1-138],19.8
5,CN1C(=O)[C@@H](NC(=O)c2ncn(Cc3ccccc3)n2)COc2cc3occc3cc21 [RIP1-119],19.1
6,CN1C(=O)[C@@H](NC(=O)c2cc(Cc3ccccc3)on2)COc2cc3occc3cc21 [RIP1-126],25.6
